Measured values from patent US9550782B2, “Compounds and methods for treating diabetes” (Medivation Technologies, Inc., priority 2011, dated 2017).
“And” between values parts separate entries of the source, which are not always exact repeats. Equal entries are not always repeated. Where two headings read alike, the source gives them in different places. Each block holds one molecule with its values, some of them ahead of it.

Experiments:
[1] = target: T1, rat adrenergic α1B receptor (Rattus norvegicus, UniProt P15823); assay: Radioligand binding, adrenergic α1B ([3H]Prazosin); design: species or system Wistar Rat
T1 construct: rat adrenergic α1B receptor obtained from Wistar Rat liver; from tissue; host or cells: Wistar rat liver
T1 sequence (P15823 1-515): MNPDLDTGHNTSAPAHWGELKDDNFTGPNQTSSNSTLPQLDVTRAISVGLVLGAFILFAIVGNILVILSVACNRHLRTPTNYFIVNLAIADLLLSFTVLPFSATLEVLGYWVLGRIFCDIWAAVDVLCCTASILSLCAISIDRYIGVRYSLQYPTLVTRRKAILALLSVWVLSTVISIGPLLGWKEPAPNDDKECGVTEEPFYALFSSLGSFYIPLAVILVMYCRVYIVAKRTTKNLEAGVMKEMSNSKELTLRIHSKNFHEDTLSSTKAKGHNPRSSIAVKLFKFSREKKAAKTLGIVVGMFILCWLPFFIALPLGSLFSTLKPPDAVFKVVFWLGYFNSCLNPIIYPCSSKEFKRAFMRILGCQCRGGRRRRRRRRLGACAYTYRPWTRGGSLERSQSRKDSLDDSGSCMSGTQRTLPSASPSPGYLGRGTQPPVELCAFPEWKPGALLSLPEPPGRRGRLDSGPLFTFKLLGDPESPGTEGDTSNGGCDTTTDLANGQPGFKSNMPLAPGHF
Method: To evaluate in radioligand binding assays the activity of compounds of the invention, rat adrenergic α1B receptor obtained from Wistar Rat liver (Garcia-S'ainz, J. et al, Biochem. Biophys. Res. Commun. 186:760, 1992; Michel, A. et al, Br. J. Pharmacol. 98:883, 1989) in a modified Tris-HCl buffer (50 mM Tris-HCl buffer, pH 7.4, 0.5 mM EDTA) was used. Compounds of the invention were incubated with 0.25 nM [^3H]Prazosin for 60 min at 25° C. Non-specific binding was estimated in the presence of 10 μM phentolamine. Receptor proteins were filtered and washed, the filters were then counted to determine [^3H]Prazosin specifically bound. […] Compounds of the invention were tested in this biochemical assay and percent inhibition of specific binding was determined. Biochemical assay results are presented as the percent inhibition of specific binding in Table B1.

[2] = target: T2, human recombinant adrenergic α2A receptor (Homo sapiens, UniProt P08913); assay: Radioligand binding, adrenergic α2A ([3H]MK-912); details: [3H]MK-912
T2 construct: expressed in transfected cells; host or cells: insect Sf9 cells
T2 sequence (P08913 1-465): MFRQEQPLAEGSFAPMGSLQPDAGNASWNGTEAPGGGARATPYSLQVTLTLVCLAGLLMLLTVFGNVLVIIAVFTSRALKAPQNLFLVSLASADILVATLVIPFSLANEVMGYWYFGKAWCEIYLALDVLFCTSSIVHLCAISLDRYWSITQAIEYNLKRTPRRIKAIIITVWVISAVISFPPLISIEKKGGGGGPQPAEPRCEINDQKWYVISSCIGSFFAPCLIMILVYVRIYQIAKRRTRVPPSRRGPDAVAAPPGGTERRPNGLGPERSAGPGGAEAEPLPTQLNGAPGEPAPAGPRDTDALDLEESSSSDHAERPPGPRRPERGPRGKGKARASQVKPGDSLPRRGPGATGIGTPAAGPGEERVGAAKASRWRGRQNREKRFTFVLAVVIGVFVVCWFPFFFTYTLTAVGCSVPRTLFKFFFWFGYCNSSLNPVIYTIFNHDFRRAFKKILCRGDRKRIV
Method: To evaluate in radioligand binding assays the activity of compounds of the invention, human recombinant adrenergic α2A receptor expressed in insect Sf9 cells (Uhlen, S. et al, J. Pharmacol. Exp. Ther. 271:1558, 1994) in a modified Tris-HCl buffer (50 mM Tris-HCl, pH 7.4, 12.5 mM MgCl2, 2 mM EDTA) was used. Compounds of invention were incubated with 1 nM [^3H]MK-912 for 60 min at 25° C. MK912 is (2S-trans)-1,3,4,5′,6,6′,7,12b-octahydro-1′,3′-dimethyl-spiro[2H-benzofuro[2,3-a]quinolizine-2,4′(1′H)-pyrimidin]-2′(3′H)-one hydrochloride. Non-specific binding was estimated in the presence of 10 μM WB-4101 (2-(2,6-Dimethoxyphenoxyethyl)aminomethyl-1,4-benzodioxane hydrochloride). Receptor proteins were filtered and washed, the filters were then counted to determine [^3H]MK-912 specifically bound. […] Compounds of the invention were tested in this biochemical assay and percent inhibition of specific binding was determined. Biochemical assay results are presented as the percent inhibition of specific binding in Table B1.

[3] = read-out: Percentage inhibition of ligand binding, Adrenergic α1B (0.1 μM), compound at 0.1 μM, repeat datapoints each shown
[4] = compound at 0.1 μM, repeat datapoints each shown, 0.1 µM
[5] = 0.1 μM compound, read-out: Percentage inhibition of ligand binding, Adrenergic α2A
[6] = read-out: Percentage inhibition of ligand binding, Adrenergic α2A (0.1 μM), compound at 0.1 μM, repeat datapoints each shown

- Percentage inhibition of ligand binding, Adrenergic α1B ([1]; 0.1 μM compound, 0.1 µM): 43%
SMILES: CN1CCc2c(c3cc(Cl)ccc3n2CC(C)(O)c2ccc(C(F)(F)F)nc2)C1 (single isomer, unassigned) [143a]

- Percentage inhibition of ligand binding, Adrenergic α2A ([2]; compound at 0.1 μM, 0.1 µM): 37%
- Percentage inhibition of ligand binding, Adrenergic α1B ([1]; compound at 0.1 μM): 13%
SMILES: CN1CCc2c(n(CC(O)c3ccc(F)c(F)c3)c3ccc(Cl)cc23)CC1 (single isomer, unassigned) [339a]

- Percentage inhibition of ligand binding, Adrenergic α2A ([2]; compound at 0.1 μM, 0.1 µM): 64%
SMILES: CN1CCc2c(n(CC(O)c3ccc(F)c(F)c3)c3ccc(Cl)cc23)CC1 (single isomer, unassigned) [339b]

- Percentage inhibition of ligand binding, Adrenergic α2A ([2]; compound at 0.1 μM, 0.1 µM): 4%
SMILES: OCCN1CCc2c(c3cc(Cl)ccc3n2CC(O)c2ccncc2)C1 (single isomer, unassigned) [II-93b]

- Percentage inhibition of ligand binding, Adrenergic α1B (0.1 μM) [1, 4]: 57%
SMILES: Cc1ccc2c(c1)c1c(n2CC(O)c2ccc(F)cc2)CCN(C)C1 (stereo not shown) [30a]

- Percentage inhibition of ligand binding, Adrenergic α2A ([2]; 0.1 μM compound): 63%
SMILES: Cc1ccc2c(c1)c1c(n2CC(O)c2ccc(C#N)cc2)CCN(C)C1 (stereo not shown) [142b]

- inhibition at 0.1 µM [2, 6]: 16%
SMILES: CN1CCc2c(c3cc(Cl)ccc3n2CC(O)c2cccnc2)C1 (stereo not shown) [compound 7]

- inhibition at 0.1 µM [2, 6]: 63%
- inhibition at 0.1 µM [1, 3]: 86%
SMILES: Cc1ccc2c(c1)c1c(n2CC(O)c2ccc(F)cc2)CCN(C)C1 (stereo not shown) [compound 30]

More lines, now with the values behind:

SMILES: Cc1ccc2c(c1)c1c(n2CC(N=[N+]=[N-])c2ccncc2)CCN(C)C1 (racemic) [V-1, 5-(2-azido-2-(pyridin-4-yl)ethyl)-2,3,4,5-tetrahydro-2,8-dimethyl-1H-pyrido[4,3-b]indole]
- inhibition at 0.1 µM [1, 3]: 15%

SMILES: CCC(O)(Cn1c2c(c3cc(C)ccc31)CN(C)CC2)c1ccc(F)cc1 (single isomer, unassigned) [34a]
- Percentage inhibition of ligand binding, Adrenergic α2A (0.1 μM) [2, 4]: 29%
- Percentage inhibition of ligand binding, Adrenergic α1B (0.1 μM) [1, 4]: 11%

SMILES: Cc1ccc2c(c1)c1c(n2CC(O)c2ccncc2)CCN2CCCC12 (single isomer, unassigned) [129a]
- Percentage inhibition of ligand binding, Adrenergic α2A ([2]; 0.1 μM compound, 0.1 µM): 46%
- Percentage inhibition of ligand binding, Adrenergic α1B ([1]; 0.1 μM compound, 0.1 µM): 73%

SMILES: Cc1ccc2c(c1)c1c(n2CC(O)c2ccncc2)CCN2CCCC12 (single isomer, unassigned) [129b]
- Percentage inhibition of ligand binding, Adrenergic α2A ([2]; 0.1 μM compound, 0.1 µM): 55%
- Percentage inhibition of ligand binding, Adrenergic α1B ([1]; 0.1 μM compound, 0.1 µM): 69%

SMILES: Cc1ccc2c(c1)c1c(n2CC(O)c2ccncc2)CCN2CCCC12 (single isomer, unassigned) [129c]
- inhibition at 0.03 µM ([2]; 0.03 μM compound, read-out: Percentage inhibition of ligand binding, Adrenergic α2A): 14%
- inhibition at 0.1 µM [2, 5]: 29%

SMILES: Cc1ccc2c(c1)c1c(n2CC(OC(=O)C(C)(C)C)c2ccncc2)CCN(C)C1 (single isomer, unassigned) [130b]
- Percentage inhibition of ligand binding, Adrenergic α2A ([2]; 0.03 μM compound, 0.03 µM): 13%
- Percentage inhibition of ligand binding, Adrenergic α2A ([2]; 0.1 μM compound, 0.1 µM): 31%
- Percentage inhibition of ligand binding, Adrenergic α1B ([1]; 0.03 μM compound, 0.03 µM): 2%
- Percentage inhibition of ligand binding, Adrenergic α1B ([1]; 0.1 μM compound, 0.1 µM): 8% and 11%

SMILES: Cc1ccc2c(c1)c1c(n2CC(c2ccncc2)N(C)C)CCN(C)C1 (single isomer, unassigned) [150b]
- Percentage inhibition of ligand binding, Adrenergic α2A ([2]; 0.1 μM compound, 0.1 µM): 5%
- Percentage inhibition of ligand binding, Adrenergic α1B ([1]; 0.1 μM compound, 0.1 µM): 7%

SMILES: Cc1ccc2c(c1)c1c(n2CC(c2ccncc2)N2CCCC2)CCN(C)C1 (single isomer, unassigned) [152a]
- Percentage inhibition of ligand binding, Adrenergic α2A ([2]; 0.1 μM compound): 17%

SMILES: Cc1ccc2c(c1)c1c(n2CC(c2ccncc2)N2CCCC2)CCN(C)C1 (single isomer, unassigned) [152b]
- Percentage inhibition of ligand binding, Adrenergic α1B ([1]; 0.1 μM compound): 7%

SMILES: Cc1ccc2c(c1)c1c(n2CC(N)c2ccncc2)CC2CCC1N2C (single isomer, unassigned) [155a]
- Percentage inhibition of ligand binding, Adrenergic α2A ([2]; 0.1 μM compound, 0.1 µM): −1%

SMILES: CC(O)(Cn1c2c(c3cc(Cl)ccc31)CN(C1CCC1)CC2)c1cccnc1 (single isomer, unassigned) [II-118a]
- Percentage inhibition of ligand binding, Adrenergic α2A (0.1 μM) [2, 4]: 3%

SMILES: Cc1ccc2c(c1)c1c(n2CC(C)(O)c2cccnc2)C(O)CN(C)C1 (single isomer, unassigned) [II-151a]
- Percentage inhibition of ligand binding, Adrenergic α1B (0.1 μM) [1, 4]: 11%

SMILES: CC(O)(Cn1c2c(c3cc(Cl)cnc31)C1CCCN1CC2)c1cccnc1 (single isomer, unassigned) [IV-210a]
- Percentage inhibition of ligand binding, Adrenergic α1B (0.03 μM) ([1]; compound at 0.03 μM, repeat datapoints each shown): 43%

SMILES: C/C(=C\n1c2c(c3cc(C)ccc31)C1CCCN1CC2)c1ccc(C)nc1 (stereo not shown) [193a, 10-methyl-7-(2-(6-methylpyridin-3-yl)prop-1-enyl)-2,3,5,6,7,11c-hexahydro-1H-indolizino[7,8-b]indole]
- inhibition at 0.1 µM [2, 5]: 85%
- inhibition at 0.1 µM ([1]; 0.1 μM compound, read-out: Percentage inhibition of ligand binding, Adrenergic α1B): 89%

SMILES: Cc1ccc2c(c1)c1c(n2C(C)C(O)c2ccncc2)CCN(C)C1 (stereo not shown) [II-98a]
- Percentage inhibition of ligand binding, Adrenergic α2A ([2]; compound at 0.1 μM): 12%
- Percentage inhibition of ligand binding, Adrenergic α1B ([1]; compound at 0.1 μM): 33%

SMILES: Cc1ccc2c(c1)c1c(n2CC(O)c2cn[nH]c2)CCN(C)C1 (stereo not shown) [II-106a]
- Percentage inhibition of ligand binding, Adrenergic α1B ([1]; compound at 0.1 μM): 25%

SMILES: Cc1cnc2c(c1)c1c(n2CCc2ccc(C)nc2)CCN2CCCC12 (stereo not shown) [compound 74, 10-methyl-7-(2-(6-methylpyridin-3-yl)ethyl)-2,3,5,6,7,1c-hexahydro-1H-pyrido[3′,2′:4,5]pyrrolo[2,3-g]indolizine]
- inhibition at 0.1 µM [1, 3]: 81%
